Data taken from patent publication US8614342B2, “Process for preparing epoxycarboxylic esters” (BASF SE, priority 2012, dated 2013).

Conditions: 20° C.

Which “solubility of MEP in water” value does the source give for COC(=O)C1CO1 (stereo not shown) [MEP, Methyl Epoxy Propionate] here?
Its value is 43 g/10 g of H2O.
